From the supplement of paper PMC10307832

Key:
Experiment in all cases: relative viability (nuclei count vs DMSO), 5 days (fraction); higher = more cells survive
[1] = system: ABC-1
Method in brief: (§1)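 For relative viability, nuclei counts in treated wells were divided by those in vehicle wells. Lung cancer cell lines had been pin-tool dosed in 1536-well plates the day after seeding and cultured for 5 days, then fixed and stained in one step (final 0.05% Triton X-100, 1% formaldehyde, 1 ug/ml Hoechst) and imaged at 4×. Doses were one drug alone or a fixed anchor-drug dose plus five library-drug doses (not always all listed) in √10 steps, and values are duplicate-plate medians.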

[2] = system: Calu-6
Method in brief: as §1

[3] = system: NCI-H1703
Method in brief: as §1

[4] = system: NCI-H1651
Method in brief: as §1

[5] = system: EBC-1
Method in brief: as §1

[6] = system: NCI-H1299
Method in brief: as §1

[7] = system: COR-L23
Method in brief: as §1

[8] = system: IA-LM
Method in brief: as §1

[9] = system: A549
Method in brief: as §1

[10] = system: NCI-H1437
Method in brief: as §1

[11] = system: SK-MES-1
Method in brief: as §1

[12] = system: SW 1573
Method in brief: as §1

Compound: COc1cc2nccc(Oc3ccc(NC(=O)Nc4cc(C)on4)c(Cl)c3)c2cc1OC [Tivozanib] + C[C@]1(O)C[C@@H](c2nc(-c3ccc4ccc(-c5ccccc5)nc4c3)c3c(N)nccn32)C1 [Linsitinib] (partner 1 µM)
- relative viability ([1]; first compound 0.005 µM): 0.716
- relative viability ([1]; first compound 0.01581 µM): 0.887
- relative viability ([1]; first compound 0.05 µM): 0.676
- relative viability ([1]; first compound 0.1581 µM): 0.745
- relative viability ([1]; first compound 0.5 µM): 0.783
- relative viability ([2]; first compound 0.005 µM): 0.89
- relative viability ([2]; first compound 0.01581 µM): 0.941
- relative viability ([2]; first compound 0.05 µM): 0.894
- relative viability ([2]; first compound 0.1581 µM): 0.915
- relative viability ([2]; first compound 0.5 µM): 0.83
- relative viability ([3]; first compound 0.005 µM): 0.402
- relative viability ([3]; first compound 0.01581 µM): 0.254
- relative viability ([3]; first compound 0.05 µM): 0.167
- relative viability ([3]; first compound 0.1581 µM): 0.158
- relative viability ([3]; first compound 0.5 µM): 0.283
- relative viability ([4]; first compound 0.005 µM): 0.929
- relative viability ([4]; first compound 0.01581 µM): 0.988
- relative viability ([4]; first compound 0.05 µM): 0.87
- relative viability ([4]; first compound 0.1581 µM): 0.949
- relative viability ([4]; first compound 0.5 µM): 0.963
- relative viability ([5]; first compound 0.005 µM): 0.86
- relative viability ([5]; first compound 0.01581 µM): 0.898
- relative viability ([5]; first compound 0.05 µM): 0.909
- relative viability ([5]; first compound 0.1581 µM): 0.762
- relative viability ([5]; first compound 0.5 µM): 0.887
- relative viability ([6]; first compound 0.005 µM): 0.956
- relative viability ([6]; first compound 0.01581 µM): 0.981
- relative viability ([6]; first compound 0.05 µM): 0.981
- relative viability ([6]; first compound 0.1581 µM): 0.998
- relative viability ([6]; first compound 0.5 µM): 0.841
- relative viability ([7]; first compound 0.005 µM): 0.848
- relative viability ([7]; first compound 0.01581 µM): 0.886
- relative viability ([7]; first compound 0.05 µM): 0.994
- relative viability ([7]; first compound 0.1581 µM): 0.887
- relative viability ([7]; first compound 0.5 µM): 0.819
- relative viability ([8]; first compound 0.005 µM): 0.526
- relative viability ([8]; first compound 0.01581 µM): 0.508
- relative viability ([8]; first compound 0.05 µM): 0.573
- relative viability ([8]; first compound 0.1581 µM): 0.467
- relative viability ([8]; first compound 0.5 µM): 0.511
- relative viability ([9]; first compound 0.005 µM): 0.52
- relative viability ([9]; first compound 0.01581 µM): 0.606
- relative viability ([9]; first compound 0.05 µM): 0.625
- relative viability ([9]; first compound 0.1581 µM): 0.635
- relative viability ([9]; first compound 0.5 µM): 0.656
- relative viability ([10]; first compound 0.005 µM): 1.02
- relative viability ([10]; first compound 0.01581 µM): 0.989
- relative viability ([10]; first compound 0.05 µM): 0.969
- relative viability ([10]; first compound 0.1581 µM): 0.947
- relative viability ([10]; first compound 0.5 µM): 1
- relative viability ([11]; first compound 0.005 µM): 1.08
- relative viability ([11]; first compound 0.01581 µM): 1.07
- relative viability ([11]; first compound 0.05 µM): 1.05
- relative viability ([11]; first compound 0.1581 µM): 1.14
- relative viability ([11]; first compound 0.5 µM): 1.07
- relative viability ([12]; first compound 0.005 µM): 0.896
- relative viability ([12]; first compound 0.01581 µM): 0.826
- relative viability ([12]; first compound 0.05 µM): 0.921
- relative viability ([12]; first compound 0.1581 µM): 0.819
- relative viability ([12]; first compound 0.5 µM): 0.86

Compound: Nc1ccn([C@@H]2O[C@H](CO)[C@@H](O)[C@@H]2O)c(=O)n1 [Cytarabine] + CS(=O)(=O)CCNCc1ccc(-c2ccc3ncnc(Nc4ccc(OCc5cccc(F)c5)c(Cl)c4)c3c2)o1 [Lapatinib] (partner 2 µM)
- relative viability ([1]; first compound 0.005 µM): 1.29
- relative viability ([1]; first compound 0.01581 µM): 1.24
- relative viability ([1]; first compound 0.1581 µM): 1.16
- relative viability ([1]; first compound 0.5 µM): 1.03
- relative viability ([2]; first compound 0.005 µM): 0.903
- relative viability ([2]; first compound 0.01581 µM): 0.856
- relative viability ([2]; first compound 0.05 µM): 0.921
- relative viability ([2]; first compound 0.1581 µM): 0.512
- relative viability ([2]; first compound 0.5 µM): 0.341
- relative viability ([3]; first compound 0.005 µM): 0.776
- relative viability ([3]; first compound 0.01581 µM): 0.388
- relative viability ([3]; first compound 0.05 µM): 0.286
- relative viability ([3]; first compound 0.1581 µM): 0.16
- relative viability ([3]; first compound 0.5 µM): 0.194
- relative viability ([4]; first compound 0.005 µM): 0.801
- relative viability ([4]; first compound 0.01581 µM): 0.845
- relative viability ([4]; first compound 0.05 µM): 1.02
- relative viability ([4]; first compound 0.1581 µM): 0.421
- relative viability ([4]; first compound 0.5 µM): 0.288
- relative viability ([5]; first compound 0.01581 µM): 0.22
- relative viability ([5]; first compound 0.05 µM): 0.185
- relative viability ([5]; first compound 0.1581 µM): 0.152
- relative viability ([5]; first compound 0.5 µM): 0.208
- relative viability ([6]; first compound 0.005 µM): 0.976
- relative viability ([6]; first compound 0.01581 µM): 0.979
- relative viability ([6]; first compound 0.05 µM): 1.07
- relative viability ([6]; first compound 0.1581 µM): 0.987
- relative viability ([6]; first compound 0.5 µM): 0.95
- relative viability ([7]; first compound 0.005 µM): 0.892
- relative viability ([7]; first compound 0.01581 µM): 0.668
- relative viability ([7]; first compound 0.05 µM): 0.921
- relative viability ([7]; first compound 0.1581 µM): 0.235
- relative viability ([7]; first compound 0.5 µM): 0.138
- relative viability ([8]; first compound 0.005 µM): 0.85
- relative viability ([8]; first compound 0.01581 µM): 0.729
- relative viability ([8]; first compound 0.05 µM): 0.588
- relative viability ([8]; first compound 0.1581 µM): 0.297
- relative viability ([8]; first compound 0.5 µM): 0.175
- relative viability ([9]; first compound 0.005 µM): 0.835
- relative viability ([9]; first compound 0.01581 µM): 0.648
- relative viability ([9]; first compound 0.05 µM): 0.569
- relative viability ([9]; first compound 0.1581 µM): 0.148
- relative viability ([9]; first compound 0.5 µM): 0.0593
- relative viability ([10]; first compound 0.005 µM): 0.548
- relative viability ([10]; first compound 0.01581 µM): 0.453
- relative viability ([10]; first compound 0.05 µM): 0.378
- relative viability ([10]; first compound 0.1581 µM): 0.177
- relative viability ([10]; first compound 0.5 µM): 0.147
- relative viability ([11]; first compound 0.005 µM): 0.416
- relative viability ([11]; first compound 0.01581 µM): 0.396
- relative viability ([11]; first compound 0.05 µM): 0.328
- relative viability ([11]; first compound 0.1581 µM): 0.228
- relative viability ([11]; first compound 0.5 µM): 0.196
- relative viability ([12]; first compound 0.005 µM): 1.17
- relative viability ([12]; first compound 0.01581 µM): 0.879
- relative viability ([12]; first compound 0.05 µM): 0.952
- relative viability ([12]; first compound 0.1581 µM): 0.606
- relative viability ([12]; first compound 0.5 µM): 0.329
